# “And” between values parts separate entries of the source, which are not always exact repeats. Equal entries are not always repeated.
# What was measured:
# [1] = test system: benign prostatic hyperplasia (BPH); test: Mouse model of BPH (white cell number, lecithin density, prostate tissue); assay type: in vivo
# From the text: In the BPH model group (FIG. 7), glands proliferation and a small amount of lymphocytes and plasma cells were shown.
# [2] = test system: Human fibroblast-like synoviocytes rheumatoid arthritis (HFLS-RA) cells; test: HFLS-RA cell proliferation (cell numbers 48 hours after treatment); assay type: cell-based
# Description: Human fibroblast-like synoviocytes rheumatoid arthritis (HFLS-RA) cells were cultured in vitro and proliferation of the cells was measured by quantifying cells numbers 48 hours after treatment. The cells were treated with DCP at concentrations of 1.563 μg/ml; 3.125 μg/ml; 6.25 μg/ml; 12.5 μg/ml; 25 μg/ml; 50 μg/ml; or 100 μg/ml.
# [3] = test system: Human MH7A synovial cells; test: MH7A synovial cell proliferation (cell numbers 48 hours after treatment); assay type: cell-based
# Description: Human MH7A synovial cells were cultured in vitro and proliferation of the cells was measured by quantifying cells numbers 48 hours after treatment. The cells were treated with DCP at concentrations of 1.563 μg/ml; 3.125 μg/ml; 6.25 μg/ml; 12.5 μg/ml; 25 μg/ml; 50 μg/ml; or 100 μg/ml.
# [4] = test system: nonbacterial prostatitis; test: Mouse model for prostatitis, prostate tissue pathology; assay type: in vivo
# From the text: Mouse model for prostatitis was utilized to study the effects of DCP.
# [5] = test system: benign prostatic hyperplasia (BPH); test: Study of DCP in male cancer patients also suffering from BPH; assay type: in vivo, human
# [6] = test system: rheumatoid arthritis, osteoarthritis, arthrolithiasis (gout); test: Phase II and Phase III clinical trials in SCLC patients also suffering from rheumatoid arthritis, osteoarthritis, gout and other diseases; assay type: in vivo, human; details: DCP 1 to about 10 mg/kg body weight
# Description: DCP alleviated symptoms for clinical trial patients suffering from multiple diseases. In China, DCP (1 to about 10 mg/kg body weight) in combination with cisplatin and Paclitaxel were used in Phase II and Phase III clinical trials for treatment of patients having small cell lung cancer (SCLC). The cancer patients were simultaneously suffering from a number of proliferative diseases, degenerative diseases, immunological diseases, and other diseases as indicated above. For example, some of the patients were suffering from rheumatoid arthritis, osteoarthritis, arthrolithiasis (gout) and/or other diseases. […] Such diseases include at least rheumatoid arthritis, osteoarthritis, and arthrolithiasis (gout). […] When DCP was administered with an additional therapeutic agent or adjuvant therapy agent such as folic acid, coenzyme Q10, curcumin, glutathione (GSH), aloe vera, oryzanol, 5-fluorouracil, bortezomib, the effects to reduce disease symptoms were further enhanced.
# [7] = Phase I dose-escalation, Chinese cancer patients; cited from earlier work
# [8] = 48 hours after treatment, 1.563-100 μg/ml
# [9] = majority of BPH patients, after two weeks of use
molecule,measurement,setting,value
"CC(C)(C)NC(=O)[C@H]1CC[C@H]2[C@@H]3CC[C@H]4NC(=O)C=C[C@]4(C)[C@H]3CC[C@]12C [PROSCAR, Finasteride, reference compound]","Prostate tissue findings (inflammation cells, glandular proliferation)","[1]; PROSCAR drug group, FIG. 8","glandular proliferation was not clear, but inflammation cells were reduced"
Dicycloplatin [DCP],"IC50, inhibition of HFLS-RA cell proliferation",[2]; [8],3.914 µg/mL and 3.125 µg/mL
same,HFLS-RA cell proliferation inhibited,[2]; FIG. 1,99%
same,"IC50, inhibition of MH7A cell proliferation",[3]; [8],8.926 µg/mL and 8.92 µg/mL
same,MH7A cell proliferation inhibited,[3]; FIG. 2,99%
same,"Effective amount for human, based on the effective amount in mice",[4]; extrapolated from mouse prostatitis model,1 to 10 mg/Kg body weight
same,Outcome of mice with nonbacterial prostatitis,[4]; treatment for 1-2 weeks,returned to normal
same,Granulomatous lesions in prostate tissue,"[4]; treatment for one week, FIG. 5",significantly reduced in some tissues or eliminated in others
same,Inflammatory cells in interstitial infiltration,"[4]; treatment for one week, FIG. 5",significantly reduced
same,Lecithin corpuscle (density),[1]; DCP injection,30 ± 0.53
same,White cell (number/μL),[1]; DCP injection,3250 ± 65 number/μL
same,Lecithin corpuscle (density),[1]; DCP oral,27 ± 0.50
same,White cell (number/μL),[1]; DCP oral,3500 ± 71 number/μL
same,Enlargement of prostate,[1]; after treatment for a therapeutic period,significant inhibited
same,"Prostate tissue findings (inflammatory cells, glandular proliferation)","[1]; intravenous administration, FIG. 9","inflammatory cells were significantly reduced, and glandular proliferation was inhibited"
same,"Prostate tissue findings (inflammatory cells, glandular proliferation)","[1]; oral administration, FIG. 10",inflammatory cells were significantly reduced and glandular proliferation was inhibited
same,Enlargement of prostate,[5]; [9],obviously inhibited
same,Maximum of urinary volume,[5]; [9],more than 12 mL/s
same,PSA,[5]; [9],decreased
same,Symptoms of BPH,[5]; male patients with cancers and BPH,significantly alleviated
same,Side effects,[6],less patients receiving DCP alone were suffering from side effects and the side effects were of less severity
same,"Symptoms of proliferative, degenerative, immunological and other diseases",[6],significantly alleviated the symptoms
same,Tolerated doses,[7],100 to 550 mg/m^2

# Reference: US20240335456A1, “CO-CRYSTAL COMPOSITION AND ITS PHARMACEUTICAL USE” (SYN-NAT PRODUCTS ENTERPRISE LLC, priority 2015, published 2024)
